Measurements published in US20220062205A1, “TREATMENT OF GASTROINTESTINAL DISORDERS AND SYMPTOMS THEREOF” (Indiana University Research and Technology Corporation, priority 2018, published 2022).

Test system: Winnie mice
Assay: Intestinal permeability: FABP1 ELISA in blood sera
Type: in vivo, mouse
Settings: day 14; mean±SEM, n=5
Protocol: The small molecular APE1/Ref-1 antagonist; APX3330, was administered via IP injections in Winnie mice at a dose of 25 mg/kg (30 G needle, max volume 200 μl) dissolved in Cremphore (2%) (Sigma-Aldrich): Ethanol (2%) in sterile water (96%). Mice received alternating IP injections twice a day with 12-hour intervals, over the course of two weeks during predominate intestinal inflammation. Winnie-sham treated mice received vehicle injections excluding APX3330 drugs. All mice were monitored, weighed and faecal pellets were collected over the course of treatment. On day 14, mice were subjected to an overdose of lethobarb (1:16 dilution, 30 G, 100 μl/20 g) IP injections for blood collections prior to harvesting colon tissues. Puncture allowed for a minimal collection of 600 μl of blood via a 26 G needle. Blood was kept on ice for 2 hours, centrifuged at 12×G at 4° C. for 15 minutes were plasma was collected and stored at −20° C. for subsequent ELISA experiments. Quantikine ELISA (mouse/rat FABP1/L-FABP) (Abcam) measured sera levels for fatty acid binding protein (FABP)-1. All samples were repeated in duplicates for statistical value. […] Microplate reader capable of measuring absorbance at 450 nm, with the correction wavelength set at 540 nm was used to detect FABP-1 protein (ng/mL) in blood sera.

CCCCCCCCCC(=CC1=C(C)C(=O)C(OC)=C(OC)C1=O)C(=O)O [APX3330]
FABP1 in blood sera: 0.6 ± 0.2 ng/mL
